Series [1] concerns the target T1, Urotensin-2 receptor (Rattus norvegicus, UniProt P49684).
T1 sequence (P49684 whole entry): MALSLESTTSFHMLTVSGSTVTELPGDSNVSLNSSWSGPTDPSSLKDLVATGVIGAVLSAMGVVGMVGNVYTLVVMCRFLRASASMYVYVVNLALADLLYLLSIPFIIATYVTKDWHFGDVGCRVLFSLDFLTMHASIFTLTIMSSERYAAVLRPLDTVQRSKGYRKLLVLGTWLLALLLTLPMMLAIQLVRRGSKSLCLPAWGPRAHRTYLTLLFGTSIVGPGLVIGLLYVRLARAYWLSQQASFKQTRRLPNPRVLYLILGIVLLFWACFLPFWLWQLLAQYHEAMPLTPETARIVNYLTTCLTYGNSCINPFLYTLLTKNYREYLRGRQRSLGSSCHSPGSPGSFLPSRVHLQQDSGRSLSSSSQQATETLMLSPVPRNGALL
As to the kind of experiment: Antagonist activity at rat UT receptor transfected in CHOK1 cells assessed as calcium mobilization by FLIPR method. It counts as functional, cell-based, CHO-K1.

Series [2] addresses T2, Urotensin-2 receptor (Homo sapiens, UniProt Q9UKP6).
T2 sequence (Q9UKP6 whole entry): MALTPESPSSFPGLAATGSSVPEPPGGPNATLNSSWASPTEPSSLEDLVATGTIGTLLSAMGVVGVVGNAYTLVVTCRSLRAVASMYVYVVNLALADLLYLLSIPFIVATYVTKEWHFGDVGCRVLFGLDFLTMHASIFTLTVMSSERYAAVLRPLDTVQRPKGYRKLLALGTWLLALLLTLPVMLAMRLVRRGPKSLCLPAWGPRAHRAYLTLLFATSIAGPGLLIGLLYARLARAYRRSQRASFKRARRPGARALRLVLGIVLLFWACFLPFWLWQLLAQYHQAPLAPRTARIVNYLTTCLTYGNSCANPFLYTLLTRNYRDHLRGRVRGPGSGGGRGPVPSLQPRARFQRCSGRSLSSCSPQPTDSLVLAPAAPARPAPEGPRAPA
As to the kind of experiment: Displacement of [125I]U2 from human UT receptor in RMS13 cells after 2.5 hrs. It counts as cell-based.

A short description of series [3]: Half life in rat at 2 mg/kg, iv. It counts as ADME, organism-based. Also noted: dose 2 mg/kg, route intravenous. Particulars: in vivo.
Series [4] is described as follows: Cmax in rat at 2 mg/kg, iv. It is filed as ADME, organism-based. Set-up: dose 2 mg/kg, route intravenous. Particulars: in vivo.
Series [5] deals with Rattus norvegicus. As to the kind of experiment: Effect on ear pinna temperature in sc dosed rat. It counts as functional, organism-based.
Series [6] concerns Rattus norvegicus. Description: Decrease in U2-induced ear pinna temperature in iv dosed rat. It is filed as functional, organism-based.

The source made the active and inactive calls. The rule behind the calls is not given here.

The IC50 is the point on the concentration scale where inhibition reaches its midpoint. For the molecule `O=C1COc2ccccc2N1CCN1CCC(C(=O)NCc2ccccc2)(c2ccccc2)CC1`, the IC50 at Urotensin-2 receptor [1] came to 43000 nM.

The term Ki denotes a measure of affinity in units of concentration, obtained from inhibition or displacement. Read a high Ki as a looser hold on the target. Consider `CC(C)(C)CC(=O)N1CCC(CNC(=O)c2cc(Cl)ccc2C2CCN(CCN3C(=O)COc4ccccc43)CC2)CC1`, for which the Ki on Urotensin-2 receptor [2] was determined as 27 nM.

Regarding `CN(CCc1ccccc1)C(=O)C1(c2ccccc2)CCN(CCN2C(=O)COc3ccccc32)CC1`, the half-inhibitory concentration (IC50) at Urotensin-2 receptor [1] amounted to 12000 nM.

Turning to `CN(CCCc1ccccc1)C(=O)C1(c2ccccc2)CCN(CCN2C(=O)COc3ccccc32)CC1`, the IC50 on Urotensin-2 receptor [1] came to 9100 nM.

One may read the half-life as the time in which the quantity being followed falls by half. The low end stands for rapid decline, the high end for slow decline. What is called Cmax is the peak of the concentration-time curve. Regarding `CC(C)(C)OC(=O)N1CCN(CCNC(=O)c2cc(Cl)ccc2C2CCN(CCN3C(=O)COc4ccccc43)CC2)CC1`, the IC50 on Urotensin-2 receptor [1] is 10 nM. This molecule also showed an inhibition constant Ki on Urotensin-2 receptor [2] of 65 nM. The molecule also showed a half-life in series [3] of 2.12 h. In series [4], this molecule came in with a peak concentration (Cmax) of 553 ng/mL. The result in the series with Rattus norvegicus [5] was inactive. The result in the series with Rattus norvegicus [6] was Active.

For `CC(C)(C)OC(=O)N1CCC(CCNC(=O)c2cc(Cl)ccc2C2CCN(CCN3C(=O)COc4ccccc43)CC2)CC1`, the affinity at Urotensin-2 receptor [2] corresponds to a Ki of 77 nM.

Regarding `O=C(NCC1CCN(C(=O)c2ccccc2)CC1)c1cc(Cl)ccc1C1CCN(CCN2C(=O)COc3ccccc32)CC1`, the Ki on Urotensin-2 receptor [2] turned out to be 160 nM.

These data come from ChEMBL document CHEMBL1137625, “Phenylpiperidine-benzoxazinones as urotensin-II receptor antagonists: synthesis, SAR, and in vivo assessment” (Bioorg Med Chem Lett, 2007).
